Assay results: US10675293B2, “Nucleoside agents for the reduction of the deleterious activity of extended nucleotide repeat containing genes” (The Board of Trustees of the Leland Stanford Junior …, priority 2015, dated 2020)
“Also recorded” adds a separate entry of the source.

Experiments:
Q44-GFP = assay: PolyQ-tagged GFP reporter in HEK293 cells, Q44-GFP; assay type: cell-based; conditions: 48 hours after transfection
Description: CAG repeats and part of the flanking region in the first exon of Htt gene were PCR amplified from cDNA of HD patient lymphoblastoid cells containing one normal and one mutant allele (Q22 and Q44) with additional flanking restriction enzyme sites NheI. The PCR fragments were than in-frame fused with pEGFP-C1 at the end of the EGFP gene to express polyQ tagged GFP.
Normal length of poly Q (Q20) and pathogenic length of poly Q(Q44) were in-frame fused at the amino-terminus of eGFPC1 protein to generate Q44- and Q20-GFP (FIG. 8A). The plasmid carrying the polyQ tagged GFP was transfected into HEK 293 cells with greater than 90% transfection efficiency.
HEK293 cells were transiently transfected with the above mentioned GFP constructs. Five hours after transfection, cells were split among the wells of a 24-well plate and various concentrations of HD101 were added into the wells. 48 hours after transfection, cells were washed with PBS, fixed with 4% paraformaldehyde, and then nuclear stained with DAPI. The cell images were taken by fluorescent microscope (FIG. 9A) and the GFP and DAPI intensity of each field were quantitated using software Image Pro 6.2.

[1] = test system: mutant Huntingtin protein; assay: Western blot of mutant HTT in Huntington's disease patient iPSC ND36999; assay type: cell-based, human; conditions: iPSC with 180 CAG repeats, 24 hr
Procedure: Cell samples were lysed in 30 mM Tris-HCl, pH 8.0, 5 mM NaCl, 0.1% Triton X-100 for 10 min on ice. The supernatants from spinning (14 k rpm for 10 min) were collected. The protein concentrations were determined by BCA assay (Pierce, ThermoFisher). Equal amounts of protein were loaded onto 4-12% gel. After electrophoresis, the gels were transferred to nitrocellulose membranes by wet transfer at 35V for 16 hr. The protein level of mutant HTT, total HTT and tubulin were determined by immunoblotting with anti-poly Glutamine (MAB1574 from Millipore), anti-Huntingtin protein (MAB2166 from Millipore) and anti-alpha tubulin (AJ1034a from ABGENT). Blots were imaged on a Li-Cor Odyssey infrared imager. The bands intensities were determined by Li-Cor Odyssey software.
To test whether the nucleoside 6-Azauridine (HD101) and (−)-6-Azauridine 2′,3′,5′-triacetate (HD106) can affect the expression of proteins with long polyQ domains, one iPSC (induced pluripotent stem cell) line ND36999, which was derived from a Huntington's disease patient who carries one allele of mutant htt gene with 180 CAG repeats, was purchased from the Coriell Institute. The iPSCs were plated into a 24-well plate coated with Matrigel. […] Cells were lysed and the protein concentrations were determined by BCA assay. […] The image (FIG. 10) was taken and the quantification was made by Li-Cor Odyssey imaging system.

[2] = target: T1, Supt4h-YC / Supt5h NGN-YN interaction (Homo sapiens, UniProt O00267+P63272); assay: Bimolecular fluorescence complementation (BiFC) assay in 2-PN4 stable cells; assay type: cell-based
T1 construct: NGN-YN is a genetic engineered protein in which Supt5h NGN domain is fused to YFP YN; expressed in transfected cells
Procedure: Human Supt4h and Supt5hNGN were fused in-frame with the YC and YN respectively. The YN and YC represent the N- and C-terminal domain of yellow fluorescent protein Venus. To prevent a change in protein folding caused by the conjugation of two polypeptides (Kerppola, “Design and implementation of bimolecular fluorescence complementation (BiFC) assays for the visualization of protein interactions in living cells,” Nature protocols (2006) 1:1278-1286), a protein linker containing additional 10 amino acid residues was included in the fusion protein. Also, extra amino acids GSHM were incorporated into the Supt5hNGN to increase its protein stability (Wenzel et al., “Crystal structure of the human transcription elongation factor DSIF hSpt4 subunit in complex with the hSpt5 dimerization interface,” The Biochemical journal (2010) 425:373-380). Supt4h, NGN, YC, and YN were amplified by PCR to generate DNA fragments containing the nucleotide sequence of protein linker. Supt4h and NGN PCR products then were mixed with the PCR product of YN or YC for secondary overlapping PCR. Finally, the resulting Supt4h-YC and NGN-YN DNA fragment was cloned into plasmid vector pcDNA3-HA and pFLAG-CMV-2 respectively.
Tet-on HeLa cells were transfected with linearized pTRE-HA-Supt4h-VC-Flag-NGN-VN plasmid construct using LipofectAMINE 2000 (Invitrogen). After transfection, cells were cultured initially in growth medium containing puromycin (1 μg/ml) and then selected for clones that show YFP fluorescence in the presence of tetracycline (4 μg/ml). The stable line having the strongest fluorescence signal was isolated and designated as 2-PN4. Likewise, 21-VS stable line was created using pTRE-HA-Venus.
Stable lines 2-PN4 and 21-VS were pre-cultured in 6-well plates, followed by an incubation of Doxycycline (4 μg/ml) together with various concentrations of chemical compounds for 24 hr. Cells were washed with PBS (Sigma) and monitored by microscope (20× magnification). Photos were taken using Nikon D500 camera with a setting of ISO 1600, shutter 1/200 for the light images, and shutter ½ for the fluorescence images. For quantification of fluorescence intensity, 5 photos with similar cell number were taken and the fluorescence signal was measured by Metamorph software individually. The average of overall fluorescence signal was determined and compared to the one observed in DMSO-treated control sample.
For the purpose of high-throughput drug screening, based on the BiFC method as mentioned above, we have created a stable cell line that co-expresses NGN-YN and Supt4h-YC under the control of a tet-on inducible promoter. […] If the complementation that is driven by NGN and Supt4h interaction is inhibited by a given test compound, the de novo YFP fluorescence signal is affected. […]

O=c1cnn([C@@H]2O[C@H](CO)[C@@H](O)[C@H]2O)c(=O)[nH]1 [HD101, 6-Azauridine]
Q44-GFP expression (GFP intensity normalized with DAPI) (Q44-GFP; higher concentration): down regulating both Q20 and Q44-GFP significantly | Q44-GFP expression (GFP intensity normalized with DAPI) (Q44-GFP; low concentration): down regulates | mutant Huntingtin protein level [1]: preferentially decrease mutant Huntingtin protein in a dose dependent manner; also recorded: reduced mutant huntingtin expression in a dose dependent manner | reduction of BiFC signal compared to mock controls ([2]; 0.02 μM, 24 hr): approximately 70% | BiFC fluorescence signal of 2-PN4 cells ([2]; various concentrations, 24 hr with Doxycycline 4 μg/ml): inhibits the fluorescence signal of BiFC
